Literature values in patent US9795715B2, “Bone tissue engineering by ex vivo stem cells ongrowth into three-dimensional trabecular metal” (Zimmer Trabecular Metal Technology, Inc., priority 2004, dated 2017).

System: porcine embryos
Settings: 0.5 mg/mL

For hyaluronan, the “development of porcine embryos in culture” value is listed as “increase the development of porcine embryos”.
